The source of these data is patent publication US20120088694A1, “CELL ASSAY METHODS AND ARTICLES” (NanoInk, Inc., priority 2010, published 2012).

The structures appear in SMILES notation.

This assay deals with NIH 3T3 fibroblasts. In words: Fibroblast spreading and migration on fibronectin patterns with PEG hydrogel delivering compound. Format: cell-based. The protocol: An exemplary method is described here for patterning cells onto surfaces using direct deposition of extracellular matrix (ECM) proteins and for delivering multiple compounds to individual cells. First, actin polymerization and stress fiber formation was followed over a 2 hour time period. Second, multiple ECM proteins were patterned on the same substrate and side-by-side analysis of single cells was done to characterize differential responses. Finally, polyethylene glycol with or without Cytochalasin-D (250 μM or 500 μM) was delivered to individual cells. A method was established for single cell analysis with multiple compounds on the same substrate. The NLP 2000 (NanoInk, Inc., Skokie, Ill.) fabrication system was used for patterning of ECM proteins and hydrogel composites. After approximately 4 hours, substrates were rinsed and non-specific cell binding is blocked with a solution of bovine serum albumin. NIH 3T3 fibroblasts (ATCC) were added at high density for 30 minutes, at which point non-adherent cells are washed and removed. Complete media was then added for between 0.5 and 3.5 hours before paraformaldehyde fixation, staining and analysis. Cells attach to approximately 75% of the patterns deposited onto glass surfaces. Cell morphology was controlled and actin polymerization was more developed with more elongated stress fibers at 2 hours versus earlier time points. […] Combinatorial experimentation is increasingly important with regard to the cellular microenvironment.
A mixture of PEG-DMA, 4-arm PEG thiol, and Cytochalasin D, a compound of interest, is patterned onto an epoxy-coated glass slide. After curing with UV, fibronectin, an ECM protein, was patterned onto the glass slide around the cured hydrogel. In a control hydrogel pattern, only PEG-DMA and 4-arm PEG thiol, but not any compound of interest, were used for fabricating the hydrogel.
Subsequently, 3T3 fibroblasts were plated onto the glass slide with PEG and fibronectin as described above. […] FIGS. 11 and 12 show the time course following spreading and migration of fibroblasts over a period of 4 hours.

[1] abbreviates: cells cultured for 2 hours, Cytochalasin D in the PEG hydrogel vs control hydrogel, 15 patterns per group.

Take `C=C1[C@@H](C)[C@H]2[C@H](Cc3ccccc3)NC(=O)[C@]23[C@H](OC(C)=O)/C=C/[C@@](C)(O)C(=O)[C@@H](C)C/C=C/[C@H]3[C@@H]1O` [Cytochalasin D]: the “migration of fibroblasts from the fibronectin patterned area” value (250 and 500 μM in PEG hydrogel, time course over 4 hours, vs PEG without CytoD) is “prevented migration of fibroblasts from the fibronectin patterned area”. Where the note is “Cytochalasin-D (250 μM or 500 μM) delivered in PEG hydrogel to individual cells”, the “cell spreading and migration” value was “decline in cell spreading and migration”. Under setting [1], the “number of cells on patterns (images, average fluorescence intensity)” value was “significantly fewer cells” and the “spreading and/or migration away from the patterns” value is “less spreading and/or migration away from the patterns”.
